According to ChEMBL document CHEMBL1130780, “Synthesis of a cosalane analog with an extended polyanionic pharmacophore conferring enhanced potency as an anti-HIV agent” (Bioorg Med Chem Lett, 1998):

Legend:
[1] = system: CEM-SS; test: Inhibitory activity against cytopathic effect of HIV-IIIB strain in CEM-SS cells.; assay type: functional, cell-based; details: Homo sapiens
[2] = The compound was tested for inhibitory activity against gp120 binding to CD4 of peripheral blood lymphocytes (PBL); assay type: functional, Homo sapiens
[3] = system: CEM-SS; test: Inhibitory activity against cytopathic effect of VIHU(NSI) clinical isolate in CEM-SS cells.; assay type: functional, cell-based; details: Homo sapiens
[4] = The compound was tested for inhibitory against fusion of HL-2/3 cells towards HeLa-CD4-LTR-beta-gal cells.; assay type: functional, cell-based, Homo sapiens
[5] = system: CEM-SS; test: Inhibitory activity against cytopathic effect of HIV-1RF in CEM-SS cells.; assay type: functional, cell-based; details: Homo sapiens
[6] = system: CEM-SS; test: The compound was tested for inhibition of HIV-1 attachment to CEM-SS cells.; assay type: functional, cell-based; details: Homo sapiens

CC(C)CCCC(C)[C@H]1CC[C@H]2[C@@H]3CCC4C[C@@H](CCC=C(c5cc(Cl)c(O)c(C(=O)O)c5)c5cc(Cl)c(O)c(C(=O)O)c5)CC[C@]4(C)[C@H]3CC[C@]12C (stereo partly specified)
EC50 [1]: 3.4 µM | IC50 [2]: 7.8 µM | EC50 [3]: 80.2 µM

CC(C)CCCC(C)[C@H]1CC[C@H]2[C@@H]3CCC4C[C@@H](CCC=C(c5cc(Cl)c(OCc6ccc(C(=O)O)cc6)c(C(=O)O)c5)c5cc(Cl)c(OCc6ccc(C(=O)O)cc6)c(C(=O)O)c5)CC[C@]4(C)[C@H]3CC[C@]12C (stereo partly specified)
IC50 [4]: 2.7 µM | EC50 [5]: 0.55 µM | IC50 [6]: 72 µM
